Data taken from PMC6017873 (Molecules : A Journal of Synthetic Chemistry and Natural …, 2018).

How the values were obtained:
SIRT1 = biological target: T1, SIRT1 (Homo sapiens, UniProt Q96EB6); set-up: method as in PMID 28475330; details: reference inhibitors, same experimental conditions; cited from earlier work
T1 sequence (Q96EB6 1-747): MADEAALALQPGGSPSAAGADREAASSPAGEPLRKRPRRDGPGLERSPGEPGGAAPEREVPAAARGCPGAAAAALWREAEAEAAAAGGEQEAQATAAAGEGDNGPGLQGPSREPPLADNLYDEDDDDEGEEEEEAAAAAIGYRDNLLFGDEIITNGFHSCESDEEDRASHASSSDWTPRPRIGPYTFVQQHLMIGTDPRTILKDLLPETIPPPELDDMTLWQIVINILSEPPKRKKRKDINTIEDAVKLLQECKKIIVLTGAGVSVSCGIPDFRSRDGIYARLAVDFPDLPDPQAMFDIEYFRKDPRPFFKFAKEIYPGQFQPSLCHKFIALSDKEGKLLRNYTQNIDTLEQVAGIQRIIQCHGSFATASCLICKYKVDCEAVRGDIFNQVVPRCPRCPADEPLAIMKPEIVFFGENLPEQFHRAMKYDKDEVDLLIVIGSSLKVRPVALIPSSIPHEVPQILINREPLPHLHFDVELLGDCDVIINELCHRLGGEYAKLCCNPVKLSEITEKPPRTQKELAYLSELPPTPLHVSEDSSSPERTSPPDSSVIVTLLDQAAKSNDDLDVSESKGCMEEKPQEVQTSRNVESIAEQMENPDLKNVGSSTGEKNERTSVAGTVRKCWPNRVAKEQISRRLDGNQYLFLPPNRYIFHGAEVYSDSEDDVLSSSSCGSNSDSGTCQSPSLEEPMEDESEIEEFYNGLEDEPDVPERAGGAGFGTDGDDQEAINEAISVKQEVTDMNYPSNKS

K-562 cells = test: Acetylation of histone H4 and α-tubulin by Western blot, K-562; format: cell-based, human; details: K-562, 5 or 50 µM
Method: Total proteins were extracted using the MPER® reagent (Thermo-scientific, […], Belgium) supplemented by 1× protease inhibitor cocktail (Complete EDTA-free, Roche, Prophac, Luxembourg, Luxembourg) according to manufacturer's instructions. Histones were extracted as previously described. Western blots were carried out as previously reported. Anti-acetylated α-tubulin (sc-23950) was from Santa Cruz Biotechnology (Tebubio, Boechout, Belgium); anti-acetylated histone H4 (06-866), anti-acetylated histone […] K-562 cells were treated with […] Acetylation of histone H4 (AcH4) and α-tubulin (Ac α- tubulin) was analyzed by Western Blot. β-actin and histone H1 were used as loading controls for the analysis of total and acid extracts, respectively. Blots are representative of three independent experiments. […]

SIRT3 = biological target: T2, SIRT3 (Homo sapiens, UniProt Q9NTG7); set-up: method as in PMID 28475330; details: cited from earlier work
T2 sequence (Q9NTG7 1-399): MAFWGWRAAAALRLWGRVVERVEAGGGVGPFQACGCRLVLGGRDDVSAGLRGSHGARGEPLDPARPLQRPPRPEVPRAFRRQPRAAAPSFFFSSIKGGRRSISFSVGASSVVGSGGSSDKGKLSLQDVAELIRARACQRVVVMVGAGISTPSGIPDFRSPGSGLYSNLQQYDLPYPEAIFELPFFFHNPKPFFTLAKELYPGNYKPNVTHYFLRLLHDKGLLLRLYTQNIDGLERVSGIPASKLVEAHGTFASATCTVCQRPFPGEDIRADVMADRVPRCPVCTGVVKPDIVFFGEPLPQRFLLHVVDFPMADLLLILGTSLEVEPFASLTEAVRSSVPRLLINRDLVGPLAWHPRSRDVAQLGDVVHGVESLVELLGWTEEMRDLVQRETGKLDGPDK

[1] = reference inhibitors, same experimental conditions

N#C/C(=C\c1ccc(-c2cc(Cl)ccc2Cl)o1)C(=O)Nc1cccc2ncccc12 [AGK2]
IC50 (SIRT1): 98.1 ± 2.4 µM

Cc1ccc(C(=O)Nc2ccc(S(=O)(=O)O)c3cc(S(=O)(=O)O)cc(S(=O)(=O)O)c23)cc1NC(=O)c1cccc(NC(=O)Nc2cccc(C(=O)Nc3cc(C(=O)Nc4ccc(S(=O)(=O)O)c5cc(S(=O)(=O)O)cc(S(=O)(=O)O)c45)ccc3C)c2)c1 [Suramin, suramin]
histone H4 or α-tubulin acetylation (K-562 cells): fails to induce histone H4 or α-tubulin acetylation
histone H4 or α-tubulin acetylation (K-562 cells; listed as suramin): failed to induce any increase in histone or α-tubulin acetylation
remaining SIRT3 enzymatic activity compared to the control set to 100% (SIRT3; at 100 µM): 70%
IC50 (SIRT3; [1]): > 100 µM
IC50 SIRT3 (SIRT3; [1]): inactive
